The values below are quoted from earlier work in US20010041741A1, “Composition for improvement of cellular nutrition and mitochondrial energetics” (priority 1997, published 2001).

For series [1], the system named is in-patients with heart failure and on long-term furosemide therapy.
In series [2] the test system is patients suffering from congestive heart failure. The conditions noted are these: oral dose of 1 gram three times per day.
In series [3] the test system is patients with heart failure. To be noted: creatine supplement.
Experiment in series [4]: not given
This is another data set of the same source.

For series [5], the system named is animals and patients with heart failure or myocardial ischemia. The conditions noted are these: L-carnitine 3-5 grams, proprionyl-1-carnitine 1.5-3.0 grams.

The structures appear in SMILES notation. Like-named read-outs stand apart in the source and are kept apart here.

In the case of `Cc1ncc(C[n+]2csc(CCO)c2C)c(N)n1` [thiamine, Thiamine], in series [1] (after one week, 200 mg intravenous thiamine), the “Mean left ventricular ejection fraction” value is on record as “increased significantly”. Besides, the “Increase of left ventricular ejection fraction” value in series [1] (after six weeks of oral thiamine supplementation, 200 mg/day) is 22%. Besides, in series [1] (within two days of thiamine supplementation, versus placebo), the “Diuresis, excretion of sodium and water” value was “significant diuresis with increased excretion of sodium and water”.

`COC1=C(OC)C(=O)C(C/C=C(\C)CC/C=C(\C)CC/C=C(\C)CC/C=C(\C)CC/C=C(\C)CC/C=C(\C)CC/C=C(\C)CC/C=C(\C)CC/C=C(\C)CCC=C(C)C)=C(C)C1=O` [Ubiquinone, 2,3 dimethoxy-5 methyl-6-decaprenyl benzoquinone]: for the setting “after 4 days of dosing at 100 mg 3 times daily”, the “Increase of mean steady state level in plasma” value is reported as 4-7 fold. For the same compound, the “Liver enzymes (LDH, SGOT)” value (doses of 300 mg/day) was “asymptomatic elevations”. Further, the Side effects entry (in vivo) was “virtually absent”. Further, the “T½ of plasma decay” value (oral) was 34 h. For the same compound, the “Time of plasma level peak” value (oral absorption) is 5 to 10 h. For the same compound, the “Share of an oral dose taken up by the myocardium” value (oral, large hepatic first pass effect) is reported as 2-5%.

In the case of `NCCS(=O)(=O)O` [taurine, 2-aminoethanesulfonic acid], in series [2], the “Hemodynamic state and functional capacity” value is “improve both hemodynamic state and functional capacity”; the Tolerance entry is listed as “extremely well tolerated”.

In the case of `CN(CC(=O)O)C(=N)N` [creatine, Creatine], in series [3], the Cardiac ejection fraction result is listed as “did not increase”; the “Skeletal muscle creatine phosphate, muscle strength and endurance” value is “significantly increased”.

`C[N+](C)(C)C[C@H](O)CC(=O)[O-]` [L-carnitine, 3-hydroxy-4-N-trimethylaminobutyric acid]: in series [4] (following oral administration), the “Time of peak plasma concentration” value is 3 h and the “T½ of plasma decay” value is 3 to 4 h. In addition, the “Tolerance / adverse effects” value in series [4] (in vivo) was “well tolerated and no adverse effects have been described”. Further, the Bioavailability in series [4] (oral) was 5-20%. For the same compound, the Hemodynamics entry in series [5] is “significant hemodynamic improvement”.

For the compound `CCC(=O)O[C@H](CC(=O)[O-])C[N+](C)(C)C` [proprionyl-1-carnitine, Proprionyl-1-carnitine], in series [5], the Hemodynamics entry is given as “significant hemodynamic improvement”.
